According to ChEMBL document CHEMBL4765241, “Identification and Preclinical Pharmacology of ((1 R,3 S)-1-Amino-3-(( S)-6-(2-methoxyphenethyl)-5,6,7,8-tetrahydronaphthalen-2-yl)cyclopentyl)methanol (BMS-986166): A Differentiated Sphingosine-1-phosphate Receptor 1 (S1P) Modulator Advanced into Clinical Trials” (J Med Chem, 2019):
Active and inactive are the calls of the source. The calls are words filed in the database; no cut-off is given here.

What was measured:
[1] = AUC ratio in orally dosed Beagle dog blood assessed as phosphate metabolite to parent compound; format: ADME, organism-based, Canis lupus familiaris; details: in vivo, po
[2] = Pulmonary toxicity in Lewis rat assessed as elevation of BAL protein level at 3 mg/kg by advia1800 chemistry analyzer; format: organism-based; details: in vivo
[3] = AUC ratio in orally dosed cynomolgus monkey blood assessed as phosphate metabolite to parent compound; format: ADME, organism-based, Macaca fascicularis; details: in vivo, po
[4] = AUC ratio in orally dosed human blood assessed as phosphate metabolite to parent compound; format: ADME, organism-based; details: po
[5] = test system: Mus musculus; test: Immunosuppressive activity in MOG (35 to 55 residues)/pertussis toxin-induced experimental autoimmune encephalomyelitis C57BL/6 mouse model assessed as reduction in formation of inflammatory lesions in CNS at 1 mg/kg, po QD starting from day 1 post immunization and measured thrice weekly until day 24; format: functional, organism-based
[6] = test system: Rattus norvegicus; test: Reduction in circulating lymphocytes in Lewis rat blood assessed as effective dose after oral dosing measured at 24 hrs by hematology analyzer based analysis; format: functional
[7] = AUC ratio in orally dosed Sprague-Dawley rat blood assessed as phosphate metabolite to parent compound; format: ADME, organism-based; details: in vivo, po
[8] = Cardiotoxicity in human iPSC derived cardiomyocytes assessed as reduction in beating rate at 1 nM measured over 2 hrs by multi-electrode array relative to control; format: toxicity, cell-based; design: scale not given: the % may be the effect or the level left; details: stem cell-derived cardiomyocyte, 0.001 µM
[9] = Cardiotoxicity in human iPSC derived cardiomyocytes assessed as reduction in beating rate at 10 nM measured over 2 hrs by multi-electrode array relative to control; format: toxicity, cell-based; design: scale not given: the % may be the effect or the level left; details: stem cell-derived cardiomyocyte, 0.01 µM
[10] = Pulmonary toxicity in Lewis rat assessed as elevation of BAL protein level at 1 mg/kg by advia1800 chemistry analyzer; format: organism-based; details: in vivo
[11] = test system: Cerebellar cortex; test: Induction of remyelination in lysophosphatidylcholine-induced demyelination in wild-type CD1 mouse organotypic cerebellar slice at 0.01 to 10 nM incubated for 7 days by immunohistochemistry based three-dimensional brain cell culture assay; format: functional, tissue-based; details: dose 0.01-10 nM, time 7.0 day
[12] = Antimigratory activity against human T cells assessed as inhibition of S1P-induced T cell migration preincubated for 10 mins followed by addition of S1P measured after 120 mins by calcein-AM dye based fluorescence analysis; format: functional
[13] = biological target: Sphingosine 1-phosphate receptor 3 (Homo sapiens, UniProt Q99500); test: Agonist activity at human recombinant S1P3 expressed in CHO cell membranes assessed as stimulation of [35S]-GTPgammaS binding measured after 45 mins by liquid scintillation counting assay; design: species or system Cell membrane
[14] = Tmax in Sprague-Dawley rat at 1 mg/kg, po or 1 mg/kg, iv; format: ADME, organism-based; details: in vivo
[15] = test system: Cerebellar cortex; test: Induction of remyelination in lysophosphatidylcholine-induced demyelination in wild-type CD1 mouse organotypic cerebellar slice assessed as myelination index at 0.01 to 10 nM incubated for 7 days by immunohistochemistry based three-dimensional brain cell culture assay (reference value: 50%); format: functional; details: dose 0.01-10 nM, time 7 day
[16] = biological target: T1, Sphingosine 1-phosphate receptor 4 (Homo sapiens, UniProt O95977); test: Agonist activity at human recombinant S1P4 expressed in CHO cell membranes assessed as stimulation of [35S]-GTPgammaS binding measured after 45 mins by liquid scintillation counting assay; format: functional, Cell membrane
T1 sequence (O95977 whole entry): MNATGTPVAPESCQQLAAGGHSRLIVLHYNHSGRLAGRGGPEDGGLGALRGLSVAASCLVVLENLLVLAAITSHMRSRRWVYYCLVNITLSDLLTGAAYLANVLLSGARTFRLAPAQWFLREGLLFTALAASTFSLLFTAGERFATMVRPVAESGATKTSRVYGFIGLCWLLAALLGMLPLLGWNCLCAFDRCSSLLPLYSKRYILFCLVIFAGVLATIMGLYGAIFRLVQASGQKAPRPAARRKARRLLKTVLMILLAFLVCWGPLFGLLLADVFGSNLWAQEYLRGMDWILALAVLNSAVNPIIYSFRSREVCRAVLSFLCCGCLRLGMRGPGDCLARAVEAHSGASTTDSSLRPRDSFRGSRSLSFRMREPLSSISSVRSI

[17] = Tmax in cynomolgus monkey at 1 mg/kg, po or 1 mg/kg, iv; format: ADME, organism-based, Macaca fascicularis; details: in vivo
[18] = Tmax in Beagle dog at 0.3 mg/kg, po or 1 mg/kg, iv; format: ADME, organism-based, Canis lupus familiaris; details: in vivo
[19] = Drug metabolism in Balb/c mouse blood assessed as concentration of phosphate ester metabolite formation at 30 mg/kg, po measured at 24 hrs by LC-MS/MS analysis; format: ADME, organism-based; details: in vivo
[20] = Terminal half-life in beagle dog at 1 mg/kg, iv; format: ADME, organism-based, Canis lupus familiaris; details: in vivo, read-out: beta t1/2 (converted)
[21] = Drug metabolism in Balb/c mouse blood assessed as concentration of parent compound at 30 mg/kg, po measured at 4 hrs by LC-MS/MS analysis; format: ADME, organism-based; details: Balb/c, blood, read-out: Ct
[22] = Ratio of drug metabolism in Balb/c mouse blood assessed as phosphate ester metabolite to parent drug at 0.5 mg/kg, po measured at 24 hrs by LC-MS/MS analysis; format: ADME, organism-based; details: in vivo
[23] = Drug metabolism in Balb/c mouse blood assessed as phosphate ester metabolite formation at 30 mg/kg, po measured at 4 hrs by LC-MS/MS analysis; format: ADME, organism-based; details: in vivo
[24] = test system: Mus musculus; test: Reduction in circulating lymphocytes in Balb/c mouse blood at 0.5 mg/kg, po measured at 4 hrs by hematology analyzer based analysis; format: functional; design: scale not given: the % may be the effect or the level left
[25] = Drug metabolism in Lewis rat blood assessed as concentration of parent compound at 3 mg/kg, po measured at 24 hrs by LC-MS/MS analysis
[26] = Terminal half-life in Sprague-Dawley rat at 1 mg/kg, iv; format: ADME, organism-based; details: in vivo, read-out: beta t1/2 (converted)
[27] = Drug metabolism in Balb/c mouse blood assessed as concentration of parent compound at 0.5 mg/kg, po measured at 4 hrs by LC-MS/MS analysis; format: ADME, organism-based; details: in vivo, BLD = below limit of detection
[28] = test system: Mus musculus; test: Reduction in circulating lymphocytes in Balb/c mouse blood at 30 mg/kg, po measured at 4 hrs by hematology analyzer based analysis; format: functional; design: scale not given: the % may be the effect or the level left
[29] = Ratio of drug metabolism in Balb/c mouse blood assessed as phosphate ester metabolite to parent drug at 30 mg/kg, po measured at 24 hrs by LC-MS/MS analysis; format: ADME, organism-based; details: in vivo
[30] = Drug metabolism in Balb/c mouse blood assessed as concentration of parent compound at 30 mg/kg, po measured at 24 hrs by LC-MS/MS analysis; format: ADME, organism-based; details: Balb/c, blood, read-out: Ct
[31] = Terminal half-life in cynomolgus monkey at 1 mg/kg, iv; format: ADME, organism-based, Macaca fascicularis; details: in vivo, read-out: beta t1/2 (converted)
[32] = test system: Mus musculus; test: Reduction in circulating lymphocytes in Balb/c mouse blood at 30 mg/kg, po measured at 24 hrs by hematology analyzer based analysis; format: functional; design: scale not given: the % may be the effect or the level left
[33] = Drug metabolism in Balb/c mouse blood assessed as concentration of phosphate ester metabolite formation at 0.5 mg/kg, po measured at 24 hrs by LC-MS/MS analysis; format: ADME, organism-based; details: in vivo
[34] = Ratio of drug metabolism in Lewis rat blood assessed as phosphate ester metabolite to parent drug at 3 mg/kg, po measured at 24 hrs by LC-MS/MS analysis; format: ADME, organism-based; details: in vivo
[35] = test system: Rattus norvegicus; test: Reduction in circulating lymphocytes in Lewis rat blood at 3 mg/kg, po measured at 24 hrs by hematology analyzer based analysis; format: functional; design: scale not given: the % may be the effect or the level left
[36] = Drug metabolism in Balb/c mouse blood assessed as concentration of parent compound at 0.5 mg/kg, po measured at 24 hrs by LC-MS/MS analysis; format: ADME, organism-based; details: read-out: Ct
[37] = test system: Rattus norvegicus; test: Reduction in circulating lymphocytes in Lewis rat blood at 3 mg/kg, po measured at 4 hrs by hematology analyzer based analysis; format: functional; design: scale not given: the % may be the effect or the level left
[38] = Drug metabolism in Balb/c mouse blood assessed as concentration of phosphate ester metabolite at 0.5 mg/kg, po measured at 4 hrs by LC-MS/MS analysis; format: ADME, organism-based; details: in vivo, BLD = below limit of detection
[39] = Half-life in Lewis rat at 3 mg/kg, po measured over 72 hrs by LC-MS/MS analysis; format: ADME, organism-based; details: in vivo
[40] = Drug metabolism in Lewis rat blood assessed as concentration of parent compound at 3 mg/kg, po measured at 4 hrs by LC-MS/MS analysis; format: ADME, organism-based; details: read-out: Ct
[41] = test system: Mus musculus; test: Reduction in circulating lymphocytes in Balb/c mouse blood at 0.5 mg/kg, po measured at 24 hrs by hematology analyzer based analysis; format: functional; design: scale not given: the % may be the effect or the level left
[42] = test system: Rattus norvegicus; test: Drug metabolism in Lewis rat blood assessed as concentration of phosphate ester metabolite formation at 3 mg/kg, po measured at 4 hrs by LC-MS/MS analysis; details: in vivo

Sphingosine 1-phosphate receptor 3, sequence (Q99500 whole entry): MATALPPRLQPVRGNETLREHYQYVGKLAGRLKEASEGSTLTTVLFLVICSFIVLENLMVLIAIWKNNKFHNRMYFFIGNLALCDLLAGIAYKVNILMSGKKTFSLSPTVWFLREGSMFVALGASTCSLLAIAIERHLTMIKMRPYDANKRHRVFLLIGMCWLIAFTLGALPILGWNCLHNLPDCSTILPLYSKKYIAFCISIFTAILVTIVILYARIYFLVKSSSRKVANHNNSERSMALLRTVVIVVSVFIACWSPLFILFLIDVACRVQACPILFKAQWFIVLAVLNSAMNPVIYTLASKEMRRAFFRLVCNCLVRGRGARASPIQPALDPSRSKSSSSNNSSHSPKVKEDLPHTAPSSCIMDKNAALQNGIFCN

Compound: CCCCCCCCc1ccc(CCC(N)(CO)CO)cc1 [FINGOLIMOD]
- Ratio AUC [1]: 3.7
- Activity [2]: 12.5 mg/dL
- Ratio AUC [3]: 5.9
- Ratio AUC [4]: 0.42
- Activity [5]: Active
- ED50 [6]: 0.1 mg/kg
- Ratio AUC [7]: 5.6

Compound: O=C(O)C[C@H]1CCCN(C[C@@H](O)c2ccc(-c3noc(-c4onc(-c5ccccc5)c4C(F)(F)F)n3)cc2)C1
- Activity [8]: 36%
- Activity [9]: 57%
- Activity [10]: 24.3 mg/dL

Compound: COc1ccccc1CC[C@@H]1CCc2cc([C@H]3CC[C@](N)(COP(=O)(O)O)C3)ccc2C1
- Activity [11]: Active
- IC50 [12]: 0.6 nM
- EC50 [13]: > 1000 nM
- Tmax [14]: 6 h
- Activity [8]: 11%
- Activity [15]: 100%
- Activity [9]: 27%
- EC50 [16]: 3.4 nM
- Tmax [17]: 6 h
- Tmax [18]: 6 h

Compound: CCCCCC[C@@H]1CCc2cc([C@H]3CC[C@](N)(CO)C3)ccc2C1 [BMS-986104]
- Drug metabolism [19]: 620 nM
- half-life [20]: 131 h
- concentration at 4 h [21]: 1000 nM
- Ratio [22]: 1
- Drug metabolism [23]: 150 nM
- Activity [24]: 17%
- Ratio AUC [1]: 2.4
- Ct [25]: 160 nM
- half-life [26]: 131 h
- Ct [27]: Bld
- Activity [28]: 88%
- Ratio [29]: 0.5
- concentration at 24 h [30]: 1200 nM
- Ratio AUC [3]: 0.3
- half-life [31]: 131 h
- Activity [32]: 90%
- Drug metabolism [33]: 20 nM
- Ratio [34]: 1.6
- Activity [35]: 82%
- concentration at 24 h [36]: 19 nM
- Activity [37]: 48%
- Drug metabolism [38]: Bld
- half-life [39]: > 75 h
- concentration at 4 h [40]: 130 nM
- Activity [41]: 73%
- Drug metabolism [42]: 90 nM
- Ratio AUC [7]: 2.5
